In publication PMC7397249, “Properly Substituted Cyclic Bis-(2-bromobenzylidene) Compounds Behaved as Dual p300/CARM1 Inhibitors and Induced Apoptosis in Cancer Cells” (Molecules, 2020):

Key:
EZH2 = details: cited from earlier work
p300 HAT = details: cited from earlier work
SIRT2 = molecular target: T1, SIRT2 (Homo sapiens, UniProt Q8IXJ6); assay: Modified Fluor de Lys fluorescence-based assay, SIRT2; type: biochemical; details: from 200 μM; p53 379-382 AMC substrate, NAD+
T1 construct: host or cells: E. coli
T1 sequence (Q8IXJ6 whole entry): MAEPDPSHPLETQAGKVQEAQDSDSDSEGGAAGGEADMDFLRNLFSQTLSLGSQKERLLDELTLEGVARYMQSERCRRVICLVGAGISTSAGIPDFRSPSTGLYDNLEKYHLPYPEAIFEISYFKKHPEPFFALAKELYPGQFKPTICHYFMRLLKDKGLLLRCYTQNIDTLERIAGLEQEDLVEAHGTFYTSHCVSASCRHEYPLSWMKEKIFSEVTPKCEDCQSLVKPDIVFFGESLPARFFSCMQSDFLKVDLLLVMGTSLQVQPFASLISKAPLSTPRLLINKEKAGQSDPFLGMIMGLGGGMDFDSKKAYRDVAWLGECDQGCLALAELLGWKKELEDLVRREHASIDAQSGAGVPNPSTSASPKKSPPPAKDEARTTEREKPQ
Experimental: (§1) The newly synthesized compounds 4a–n were tested to determine their effects against acetylation and methylation epigenetic targets. First, 4a–n were screened in vitro against the two HAT enzymes p300 and PCAF. […] To determine the activity against SIRT1 and -2, 4a–n were tested starting from 200 μM solutions using a modified Fluor de Lys fluorescence-based assay with amino acids 379–382 (Arg-His-Lys-Lys(Ac)) of human p53 conjugated with aminomethylcoumarin as substrate and NAD^+ as co-substrate. […] Furthermore, 4a–n were tested against a human five-membered Polycomb repressive complex 2 (PRC2) containing EZH2, embryonic ectoderm development (EED), suppressor of zeste 12 (SUZ12), RbAp48, and adipocyte enhancer-binding protein (AEBP2), to assess their capability to inhibit the catalytic unit EZH2.
(§2) The SIRT inhibition assay was performed using human recombinant SIRT1 and SIRT2 produced in E. coli. Compounds were tested using a modified Fluor de Lys fluorescence-based assay kit based on the method described in the BioMol product sheet (AK-555, AK-556, Milan, Italy). […] The second stage is initiated by the addition of the Developer II (KI176), including nicotinamide (NAM), nicotinamide that stops the SIRT1/2 activity, and the fluorescent signal is produced. The fluorescence was measured on a fluorometric reader (Infinite 200 TECAN, Männedorf, Switzerland) with excitation set at 360 nm and emission detection set at 460 nm.

PCAF = molecular target: T2, PCAF (Homo sapiens, UniProt Q92831); assay: HotSpot HAT activity assay, PCAF; type: biochemical; details: 10-dose, from 200 μM; histone H3, [acetyl-3H]-acetyl-CoA
T2 construct: PCAF (aa 492–658, 250 nM); purchased Reaction Biology Corporation
T2 sequence (Q92831 492-658): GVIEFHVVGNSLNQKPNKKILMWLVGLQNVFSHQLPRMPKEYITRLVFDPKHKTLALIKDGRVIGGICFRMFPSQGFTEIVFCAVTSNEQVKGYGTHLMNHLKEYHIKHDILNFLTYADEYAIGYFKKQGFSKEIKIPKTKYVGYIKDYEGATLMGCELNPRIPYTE
Experimental: as §1
(§3) The effect of tested derivatives on the catalytic activity of p300 and PCAF was determined in a HotSpot HAT activity assay by Reaction Biology Corporation (Malvern, PA, USA) according to the company’s standard operating procedure. In brief, the recombinant catalytic domains of PCAF (aa 492–658, 250 nM) or p300 (aa 1284–1673, 30 nM) were incubated with histone H3 as substrate (5 µM) and [Acetyl-^3H]-Acetyl Coenzyme A (3 µM) as an acetyl donor in reaction buffer (50 mM Tris-HCl (pH 8.0), 50 mM NaCl, 0.1 mM EDTA, 1 mM DTT, 1 mM PMSF, 1% DMSO) for 1 h at 30 °C in the presence or absence of a dose titration of the compounds. The reaction mixture was delivered to filter-paper for detection. IC50 values were analyzed using Excel and GraphPad Prism 6.0 software (GraphPad Software Inc., San Diego, CA, USA). The experiments for p300 were performed in triplicate.

CARM1 [1] = molecular target: T3, CARM1 (Homo sapiens, UniProt Q86X55); assay: CARM1 assay (histone H3, 3H-SAM); type: biochemical
T3 sequence (Q86X55 1-608): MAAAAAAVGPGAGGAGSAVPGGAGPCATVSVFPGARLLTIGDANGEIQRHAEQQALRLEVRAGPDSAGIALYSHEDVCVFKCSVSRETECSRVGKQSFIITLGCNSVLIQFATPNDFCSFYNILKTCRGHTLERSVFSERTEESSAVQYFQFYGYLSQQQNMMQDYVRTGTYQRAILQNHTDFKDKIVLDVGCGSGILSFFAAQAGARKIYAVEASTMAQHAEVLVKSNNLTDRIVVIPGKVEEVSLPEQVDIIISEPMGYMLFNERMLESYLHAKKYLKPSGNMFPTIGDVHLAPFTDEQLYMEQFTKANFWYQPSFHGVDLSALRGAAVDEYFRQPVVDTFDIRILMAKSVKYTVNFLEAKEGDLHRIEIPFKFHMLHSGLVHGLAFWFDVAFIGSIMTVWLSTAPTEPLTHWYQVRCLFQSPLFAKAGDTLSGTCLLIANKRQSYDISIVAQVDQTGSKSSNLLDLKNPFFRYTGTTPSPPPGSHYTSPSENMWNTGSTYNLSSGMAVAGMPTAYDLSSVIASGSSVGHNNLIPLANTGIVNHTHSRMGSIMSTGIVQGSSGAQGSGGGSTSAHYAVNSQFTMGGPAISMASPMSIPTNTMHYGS
Experimental: Histone H3 (5 μM) was added in freshly prepared reaction buffer (50 mM Tris-HCl (pH 8.5), 5 mM MgCl2, 50 mM NaCl, 0.01% Brij35, 1 mM DTT, 1% DMSO). CARM1 was delivered into the substrate solution and the mixture was mixed gently. Afterwards, the tested compounds dissolved in DMSO were delivered into the enzyme/substrate reaction mixture by using Acoustic Technology (Echo 550, LabCyte Inc. Sunnyvale, CA) in nanoliter range, and 1 µM ^3H-SAM was also added into the reaction mixture to initiate the reaction. The reaction mixture was incubated for 1 h at 30 °C and then it was delivered to filter-paper for detection. The data were analyzed using Excel and GraphPad Prism software for IC50 curve fits. The experiments were performed in triplicate.

p300 [2] = molecular target: T4, p300 (Homo sapiens, UniProt Q09472); assay: HotSpot HAT activity assay, p300; type: biochemical; details: 10-dose, triplicate, from 200 μM; histone H3, [acetyl-3H]-acetyl-CoA
T4 construct: p300 (aa 1284–1673, 30 nM); purchased Reaction Biology Corporation
T4 sequence (Q09472 1284-1673): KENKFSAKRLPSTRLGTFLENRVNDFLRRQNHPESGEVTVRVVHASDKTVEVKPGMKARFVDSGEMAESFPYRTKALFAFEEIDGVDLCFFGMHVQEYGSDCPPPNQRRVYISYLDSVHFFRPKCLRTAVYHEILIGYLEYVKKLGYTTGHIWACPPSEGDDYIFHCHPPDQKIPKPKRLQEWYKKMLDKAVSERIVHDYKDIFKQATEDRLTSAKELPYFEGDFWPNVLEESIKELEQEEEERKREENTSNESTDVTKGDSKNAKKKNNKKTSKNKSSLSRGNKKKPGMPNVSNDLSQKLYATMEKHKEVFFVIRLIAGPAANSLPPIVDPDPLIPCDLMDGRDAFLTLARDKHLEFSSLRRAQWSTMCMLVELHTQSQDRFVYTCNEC
Experimental: as §1, §3

SIRT1 = molecular target: T5, SIRT1 (Homo sapiens, UniProt Q96EB6); assay: Modified Fluor de Lys fluorescence-based assay, SIRT1; type: biochemical; details: from 200 μM; p53 379-382 AMC substrate, NAD+
T5 construct: host or cells: E. coli
T5 sequence (Q96EB6 whole entry): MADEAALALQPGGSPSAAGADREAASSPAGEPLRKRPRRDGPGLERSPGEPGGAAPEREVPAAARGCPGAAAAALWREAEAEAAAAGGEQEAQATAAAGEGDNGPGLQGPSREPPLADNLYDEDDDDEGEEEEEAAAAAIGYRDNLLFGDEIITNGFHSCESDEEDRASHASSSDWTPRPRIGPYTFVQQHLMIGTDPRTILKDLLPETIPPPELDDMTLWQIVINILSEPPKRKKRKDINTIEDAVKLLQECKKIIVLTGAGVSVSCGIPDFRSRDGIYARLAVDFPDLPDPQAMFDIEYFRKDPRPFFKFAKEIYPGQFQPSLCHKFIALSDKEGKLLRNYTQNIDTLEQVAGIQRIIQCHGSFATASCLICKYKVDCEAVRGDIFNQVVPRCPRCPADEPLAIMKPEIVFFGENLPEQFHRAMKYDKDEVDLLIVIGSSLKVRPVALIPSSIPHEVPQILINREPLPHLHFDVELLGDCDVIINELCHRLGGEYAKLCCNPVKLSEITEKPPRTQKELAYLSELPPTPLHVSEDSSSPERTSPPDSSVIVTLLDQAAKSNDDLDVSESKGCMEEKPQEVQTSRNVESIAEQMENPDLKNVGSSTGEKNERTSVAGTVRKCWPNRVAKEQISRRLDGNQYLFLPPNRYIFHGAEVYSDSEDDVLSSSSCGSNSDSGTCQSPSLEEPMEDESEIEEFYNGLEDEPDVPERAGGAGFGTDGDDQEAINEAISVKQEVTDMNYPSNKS
Experimental: as §1, §2

MCF-7 cells = assay: Cell cycle and apoptosis (sub-G1) analysis by FACS in MCF-7 cells; type: cell-based, human; details: 5 μM, 30 h
Experimental: (§4) Compounds 4a–n were tested at 5 μM for 30 h in NB4 […] and U937 AML cells among hematological cancers, and in MCF-7 breast cancer and SH-SY5Y neuroblastoma cells among solid cancers, to determine their effects in cell cycle and apoptosis induction.
(§5) In the same cell lines, the induction of apoptosis has been evaluated through the percentage of the sub-G1 peaks.
(§6) For colorimetric exclusion, the cells (2 × 10^5 cells/mL) were plated in multiwells in triplicate. After stimulations at different times and concentrations, cells were diluted in the ratio 1:1 in Trypan Blue (Sigma) and counted with an optical microscope. For cell cycle analyses, cells were plated (2 × 10^5 cells/mL) and were harvested, centrifuged at 1200 rpm for 5 min and resuspended in 500 μL of a hypotonic solution containing 1× PBS, Sodium Citrate 0.1%, 0.1% NP-40, RNAase A and […] Propidium Iodide (PI). After 30 min at room temperature (RT) in the dark, samples were acquired by FACS-Calibur (BD Bioscences, San Jose, CA, USA) using CellQuest software (BD Biosciences). The percentage in different phases of the cell cycle was determined by ModFit LT V3 software (Verity). All experiments were performed in triplicate. Cell death was measured as percentage of cells in sub-G1 phase as in [30].

PRC2/EZH2 = PRC2/EZH2 (Homo sapiens, UniProt Q15910); assay: EZH2/PRC2 assay (core histone, 3H-SAM); type: biochemical; details: 10-dose, duplicate, from 400 μM
Sequence of PRC2/EZH2 (Q15022 whole entry): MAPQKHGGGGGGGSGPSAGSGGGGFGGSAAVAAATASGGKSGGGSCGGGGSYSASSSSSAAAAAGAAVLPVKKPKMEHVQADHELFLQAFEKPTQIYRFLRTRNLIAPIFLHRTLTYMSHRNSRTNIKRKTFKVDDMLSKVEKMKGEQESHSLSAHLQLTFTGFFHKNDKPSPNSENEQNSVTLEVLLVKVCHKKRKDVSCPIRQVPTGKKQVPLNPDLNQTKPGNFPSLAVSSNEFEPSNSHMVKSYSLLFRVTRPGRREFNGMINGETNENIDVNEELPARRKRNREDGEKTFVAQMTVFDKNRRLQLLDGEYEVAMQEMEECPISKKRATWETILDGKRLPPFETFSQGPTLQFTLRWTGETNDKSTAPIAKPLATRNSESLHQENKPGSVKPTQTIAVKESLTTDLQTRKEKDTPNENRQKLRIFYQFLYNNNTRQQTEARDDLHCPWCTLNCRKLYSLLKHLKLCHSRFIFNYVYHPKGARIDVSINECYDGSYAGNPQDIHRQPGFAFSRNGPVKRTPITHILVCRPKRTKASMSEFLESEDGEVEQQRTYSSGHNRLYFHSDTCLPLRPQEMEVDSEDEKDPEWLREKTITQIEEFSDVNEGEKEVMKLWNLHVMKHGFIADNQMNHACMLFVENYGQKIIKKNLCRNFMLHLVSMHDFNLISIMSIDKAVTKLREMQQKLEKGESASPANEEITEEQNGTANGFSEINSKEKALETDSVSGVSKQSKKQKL
Sequence of PRC2/EZH2 (Q09028 whole entry, further chain): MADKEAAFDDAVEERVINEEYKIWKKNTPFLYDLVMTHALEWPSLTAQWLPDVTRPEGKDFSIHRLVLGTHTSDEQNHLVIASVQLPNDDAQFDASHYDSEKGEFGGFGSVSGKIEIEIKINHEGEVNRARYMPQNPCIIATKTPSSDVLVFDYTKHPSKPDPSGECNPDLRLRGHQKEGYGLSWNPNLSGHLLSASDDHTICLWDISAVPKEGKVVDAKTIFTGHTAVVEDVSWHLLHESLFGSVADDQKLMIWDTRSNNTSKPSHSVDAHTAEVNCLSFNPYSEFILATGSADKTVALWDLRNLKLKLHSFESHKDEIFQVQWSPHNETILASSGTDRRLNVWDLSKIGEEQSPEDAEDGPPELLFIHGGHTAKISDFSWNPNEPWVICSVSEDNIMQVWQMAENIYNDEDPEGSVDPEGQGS
Sequence of PRC2/EZH2 (Q6ZN18 whole entry, further chain): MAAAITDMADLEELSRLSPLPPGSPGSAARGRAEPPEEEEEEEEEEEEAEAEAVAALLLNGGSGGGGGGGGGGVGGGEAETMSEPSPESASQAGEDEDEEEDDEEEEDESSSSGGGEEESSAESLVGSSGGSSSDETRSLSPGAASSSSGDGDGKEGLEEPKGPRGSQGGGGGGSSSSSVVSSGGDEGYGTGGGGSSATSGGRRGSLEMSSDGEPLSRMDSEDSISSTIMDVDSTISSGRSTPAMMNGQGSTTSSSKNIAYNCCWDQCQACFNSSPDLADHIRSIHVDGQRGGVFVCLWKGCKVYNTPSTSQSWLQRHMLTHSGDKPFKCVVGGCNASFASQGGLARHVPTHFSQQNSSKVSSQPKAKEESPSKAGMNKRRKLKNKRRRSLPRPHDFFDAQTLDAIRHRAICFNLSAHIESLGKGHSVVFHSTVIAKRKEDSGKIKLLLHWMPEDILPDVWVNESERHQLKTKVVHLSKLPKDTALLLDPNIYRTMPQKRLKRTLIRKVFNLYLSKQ
Sequence of PRC2/EZH2 (Q15910 whole entry): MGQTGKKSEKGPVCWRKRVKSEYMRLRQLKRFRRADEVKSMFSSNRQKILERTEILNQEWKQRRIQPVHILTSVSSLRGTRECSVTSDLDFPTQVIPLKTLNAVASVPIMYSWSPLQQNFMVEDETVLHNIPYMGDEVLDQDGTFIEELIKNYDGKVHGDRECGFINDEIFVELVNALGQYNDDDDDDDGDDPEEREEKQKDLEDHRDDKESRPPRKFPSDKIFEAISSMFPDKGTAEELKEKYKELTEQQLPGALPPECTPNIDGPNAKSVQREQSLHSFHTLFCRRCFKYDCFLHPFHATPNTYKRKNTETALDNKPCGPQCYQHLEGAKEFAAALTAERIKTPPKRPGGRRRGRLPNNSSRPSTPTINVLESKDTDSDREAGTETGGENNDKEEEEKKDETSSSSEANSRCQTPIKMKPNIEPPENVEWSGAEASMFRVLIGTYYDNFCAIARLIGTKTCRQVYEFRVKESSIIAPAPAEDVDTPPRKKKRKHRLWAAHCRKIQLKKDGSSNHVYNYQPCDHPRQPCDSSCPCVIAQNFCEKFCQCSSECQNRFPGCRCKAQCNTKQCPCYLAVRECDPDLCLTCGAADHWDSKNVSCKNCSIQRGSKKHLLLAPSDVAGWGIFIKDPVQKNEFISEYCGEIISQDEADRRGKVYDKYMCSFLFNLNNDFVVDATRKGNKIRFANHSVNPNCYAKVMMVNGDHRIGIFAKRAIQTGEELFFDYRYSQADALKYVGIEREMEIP
Sequence of PRC2/EZH2 (O75530 whole entry, further chain): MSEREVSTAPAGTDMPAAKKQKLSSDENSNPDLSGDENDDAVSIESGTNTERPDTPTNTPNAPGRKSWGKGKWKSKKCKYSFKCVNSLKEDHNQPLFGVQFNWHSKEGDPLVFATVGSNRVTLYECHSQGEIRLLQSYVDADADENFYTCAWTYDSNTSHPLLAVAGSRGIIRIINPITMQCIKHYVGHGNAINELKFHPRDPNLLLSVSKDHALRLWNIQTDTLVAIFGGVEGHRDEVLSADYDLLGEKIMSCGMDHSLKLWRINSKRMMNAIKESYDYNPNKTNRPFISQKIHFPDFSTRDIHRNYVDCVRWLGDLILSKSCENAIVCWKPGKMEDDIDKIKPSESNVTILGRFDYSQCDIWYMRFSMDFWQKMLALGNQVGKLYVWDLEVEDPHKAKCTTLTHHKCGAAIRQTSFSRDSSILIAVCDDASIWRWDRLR
Experimental: as §1
The EZH2 substrate (0.05 mg/mL core histone) was added in the freshly prepared reaction buffer (50 mM Tris-HCl (pH 8.0), 50 mM NaCl, 1 mM EDTA, 1 mM DTT, 1 mM PMSF, 1% DMSO). The PRC2 complex (complex of human EZH2, human EED, human SUZ12, human AEBP2, and human RbAp48) was delivered into the substrate solution and the mixture was mixed gently. Afterwards, the tested compounds dissolved in DMSO were delivered into the enzyme/substrate reaction mixture by using Acoustic Technology (Echo 550, LabCyte Inc. Sunnyvale, CA, USA) in nanoliter range, and ^3H-SAM was added into the reaction mixture to initiate the reaction. The reaction mixture was incubated for 1 h at 30 °C and then it was delivered to filter-paper for detection. The data were analyzed using Excel and GraphPad Prism software for IC50 curve fits. The experiments were performed in duplicate.

NB4 cells = assay: Cell cycle and apoptosis (sub-G1) analysis by FACS in NB4 cells; type: cell-based, human; details: 5 μM, 30 h
Experimental: as §4, §5, §6

CARM1 [3] = assay: Western blot of H3R17me2 (CARM1) in MCF-7 cells; type: cell-based, human; details: 5 μM, 30 h
Experimental: (§7) In MCF-7 cells, the levels of acetyl-H3, acetyl-H4, H3K27me3, and H3R17me2 were detected by western blot analyses as functional tests for p300 (acH3 and acH4), EZH2 (H3K27me3) and CARM1 (H3R17me2) inhibition in cells, respectively (Figure 5).
(§8) The procedures were performed as described in [30, 31]. Primary antibodies used were: Ac-H3 (Millipore, Milan, Italy); Ac-H4 (Millipore, Milan, Italy); Ac-H3K9-14 (Diagenode, Ougrée, Belgium); Ac-α-tubulin (Sigma-Aldrich), H3K27me3 (Diagenode); H3R17me2 (Diagenode); EZH2 (Abcam, Cambridge, UK). H3 (Sigma-Aldrich), H4 (Abcam), GAPDH (Sigma) and ERKs (Santa Cruz, Biotechnology, TX, USA) were used to normalize the total protein extracts (see also Supplementary Material).

p300 [4] = assay: Western blot of acetylation marks (p300 inhibition) in MCF-7 cells; type: cell-based, human; details: 5 μM, 30 h
Experimental: as §7, §8

CARM1 [5] = molecular target: T3, CARM1; set-up: method as in PMID 21612300; details: cited from earlier work
SET7 = tested on: SET7; set-up: method as in PMID 21612300; details: cited from earlier work
PRMT1 = tested on: PRMT1; set-up: method as in PMID 21612300; details: cited from earlier work

| SMILES | IC50 (SIRT2) [µM] | IC50 (PCAF) [µM] | IC50 (CARM1 [1]) [µM] | IC50 (p300 [2]) [µM] | IC50 (SIRT1) [µM] | cell cycle: block in G1/S phase with almost total absence of cells in the G2/M phase (MCF-7 cells) | IC50 (PRC2/EZH2) [µM] | other results |
| --- | --- | --- | --- | --- | --- | --- | --- | --- |
| O=C1/C(=C/c2cccc(Br)c2)CN(Cc2ccccc2)C/C1=C\c1cccc(Br)c1 [Compound 3, 1-benzyl-3,5-bis((E)-3-bromobenzylidene)piperidin-4-one] | – | – | – | – | – | – | – | EZH2 inhibition (in words) (EZH2): dual p300/EZH2 inhibitor; p300 inhibition (in words) (p300 HAT): dual p300/EZH2 inhibitor |
| O=C1/C(=C/c2ccccc2Br)COC/C1=C\c1ccccc1Br [Compound 4b, 3,5-bis((E)-2-bromobenzylidene)tetrahydro-4H-pyran-4-one] | > 200 | > 200 | 23.3 ± 0.5 | 2.56 ± 0.23 | > 200 | – | – | – |
| O=C1/C(=C/c2ccccc2Br)CNC/C1=C\c1ccccc1Br [Compound 4c, 3,5-bis((E)-2-bromobenzylidene)piperidin-4-one] | > 200 | > 200 | 44.8 ± 6 | 23.2 ± 0.51 | > 200 | almost total absence of cells | – | – |
| CCCCCCCCCCCCCCCc1cccc(O)c1C(=O)O [anacardic acid, reference compound] | – | 40 ± 10.9 | – | – | – | – | – | – |
| CN1C/C(=C\c2ccccc2Br)C(=O)/C(=C/c2ccccc2Br)C1 [Compound 4d, 3,5-bis((E)-2-bromobenzylidene)-1-methylpiperidin-4-one] | > 200 | > 200 | 3.24 ± 1.22 | 2.66 ± 0.15 | > 200 | almost total absence of cells | 46.7 ± 1.1 | induction of apoptosis, % sub-G1 peaks (NB4 cells): 30 to 40% |
| O=C1/C(=C/c2ccccc2Br)CN(CCC(=O)c2ccccc2)C/C1=C\c1ccccc1Br [Compound 4i, 3,5-Bis((E)-2-bromobenzylidene)-1-(3-oxo-3-phenylpropyl)piperidin-4-one] | > 200 | > 200 | 6.96 ± 0.9 | 1.57 ± 0.72 | > 200 | – | 60.6 ± 10.5 | levels of H3R17me2 (CARM1 [3]): most effective; levels of acetyl-H4 (p300 [4]): decrease of the acetylation levels; levels of acetyl-α-tubulin (p300 [4]): decrease of the acetylation levels; melting point: 95 to 97 °C |
| O=C1/C(=C/c2ccccc2Br)CCC/C1=C\c1ccccc1Br [Compound 4a, 2,6-bis((E)-2-bromobenzylidene)cyclohexan-1-one] | > 200 | > 200 | 16.8 ± 3.4 | 1.38 ± 0.24 | > 200 | almost total absence of cells | 117 ± 6 | – |
| O=C1/C(=C/c2ccc(O)c(Br)c2)CN(Cc2ccccc2)C/C1=C\c1ccc(O)c(Br)c1 [Compound 2] | – | – | – | – | – | – | – | CARM1 inhibition (active/inactive) (CARM1 [5]): active; SET7 inhibition (active/inactive) (SET7): inactive; EZH2 inhibition (active/inactive) (EZH2; ref unpublished results): active; PRMT1 inhibition (active/inactive) (PRMT1): inactive; p300 HAT inhibition (active/inactive) (p300 HAT): inactive |
